Laboratory results reported in US20180170941A1 (priority 2016, published 2018).
pKi: −log10 of the molar value. Where two headings read alike, the source gives them in different places.

Molecular target: T1, α5β3γ2 GABAA receptors (Ltk cell membranes) (Homo sapiens, UniProt P18507+P31644)
T1 construct: membranes
Test: Binding activity of test compounds on GABAAR: inhibition of [3H]Ro15-1788 binding
Method: Tissue culture and Membrane Preparation: The binding was performed on Ltk cells stably expressing GABAA receptors: α1β1γ2, α2β3γ2, α3β3γ2 and α5β3γ2 (provided by Merck Co., NJ, USA). Cells were seeded in 100 mm culture plates in DMEM/F12 medium containing 10% serum and antibiotics in 5% CO2 and allowed to grow for 1-2 days. GABAAR expression was then induced by dexamethasone as follows: 0.5 μM for 1 day for α5 containing and 2μM for 3 days for α1, α2 and α3 containing GABAARs. After induction, cells were collected by scraping into Dulbecco's Phosphate buffered saline (DPBS, pH 7.4, Invitrogen, Carlsbad, Calif., USA) and centrifuged at 150×g for 10 min. The pellet was washed twice by re-suspension and centrifugation. The cell pellets from at least 5 different preps were combined, suspended in the binding assay buffer (50 mM KH2P4; 1 mM EDTA; 0.2 M KCl, pH 7.4) and membranes prepared by sonication (3-5 times, 30 sec) using Branson Sonifier 150 (G.Heinmann, Germany). Protein content was determined using BCA assay (Bio-Rad Labs, Reinach, Switzerland) with Bovine Serum Albumin (Sigma Aldrich, St. Louis, Mo., USA) as the standard. Aliquots were prepared and stored at −20° C. for further use in binding assays.
Ligand Binding: Saturation binding curves were obtained by incubating membranes with increasing concentrations (0.01-8 nM) of [^3H]Ro15-1788 (Flumazepil, 75-85 Ci/mmol, PerkinElmer, MA, USA), with nonspecific binding measured in the presence of 10 μM diazepam.
All binding assays were performed for 1 h at 4° C. in assay buffer. The total assay volume was 0.5 ml containing 0.2 mg/ml protein for α5 and 0.4 mg/ml for α1, α2, and α3 containing GABAAR membranes. Incubations were terminated by filtration through GF/B filters using a 24-Cell Harvestor (Brandel, Gaithersburg, Md., USA) followed by 3 washes with ice-cold assay buffer. Filters were transferred to scintillation vials, 5 ml scintillation liquid added, vortex-mixed and kept in dark. Next day, radioactivity was obtained using a scintillation counter (Beckman Coulter, Brea, Calif., USA). All assays were performed in triplicate.
Data Analyses: Saturation and inhibition curves were obtained using GraphPad Prism software (GraphPad Software, Inc., CA, USA).

[1] = GABA α5 Binding Ki Values, inhibition of [3H]Ro15-1788 binding, reported as ranges

T1 sequence (P31644 32-462): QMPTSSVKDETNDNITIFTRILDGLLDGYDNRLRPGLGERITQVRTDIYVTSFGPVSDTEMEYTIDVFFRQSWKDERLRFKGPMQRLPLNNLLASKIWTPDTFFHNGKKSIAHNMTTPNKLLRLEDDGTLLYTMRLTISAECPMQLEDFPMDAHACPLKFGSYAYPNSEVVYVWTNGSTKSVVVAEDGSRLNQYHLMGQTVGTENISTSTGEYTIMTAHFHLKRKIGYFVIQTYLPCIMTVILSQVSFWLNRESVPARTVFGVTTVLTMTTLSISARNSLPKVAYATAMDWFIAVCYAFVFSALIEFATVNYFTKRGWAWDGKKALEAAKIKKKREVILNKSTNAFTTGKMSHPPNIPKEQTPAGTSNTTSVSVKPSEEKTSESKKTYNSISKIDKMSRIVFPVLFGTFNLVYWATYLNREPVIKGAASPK
T1 sequence (P28472 26-473 partner): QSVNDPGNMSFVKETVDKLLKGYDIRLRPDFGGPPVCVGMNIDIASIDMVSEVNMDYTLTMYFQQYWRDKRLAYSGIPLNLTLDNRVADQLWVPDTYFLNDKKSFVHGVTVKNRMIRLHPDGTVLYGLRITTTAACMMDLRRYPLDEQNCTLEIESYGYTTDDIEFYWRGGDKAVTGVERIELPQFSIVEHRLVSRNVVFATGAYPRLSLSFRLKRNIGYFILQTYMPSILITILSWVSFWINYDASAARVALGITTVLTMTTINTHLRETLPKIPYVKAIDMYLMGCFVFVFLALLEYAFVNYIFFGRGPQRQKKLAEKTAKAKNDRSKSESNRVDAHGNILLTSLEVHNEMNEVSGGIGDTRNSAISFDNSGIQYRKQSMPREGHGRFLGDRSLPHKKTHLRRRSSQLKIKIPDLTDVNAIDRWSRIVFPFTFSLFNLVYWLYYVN
T1 sequence (P18507 40-475): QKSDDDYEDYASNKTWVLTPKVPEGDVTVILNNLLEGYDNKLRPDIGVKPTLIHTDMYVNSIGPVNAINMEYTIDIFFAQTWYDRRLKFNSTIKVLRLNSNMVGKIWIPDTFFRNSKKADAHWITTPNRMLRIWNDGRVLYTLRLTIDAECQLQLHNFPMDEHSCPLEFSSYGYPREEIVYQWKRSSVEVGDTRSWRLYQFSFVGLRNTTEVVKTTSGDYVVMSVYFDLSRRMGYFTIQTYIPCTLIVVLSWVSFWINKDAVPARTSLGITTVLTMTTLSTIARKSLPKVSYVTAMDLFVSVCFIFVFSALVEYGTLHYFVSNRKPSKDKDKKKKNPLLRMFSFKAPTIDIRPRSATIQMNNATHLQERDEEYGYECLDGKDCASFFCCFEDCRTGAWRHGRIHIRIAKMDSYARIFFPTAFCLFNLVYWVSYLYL

SMILES	pKi [1]	pKi
COc1ccc2c(c1)-n1nnc(COc3ccccc3)c1Cc1c(C#N)ncn1-2 [Compound 224]	> 7.00	–
COc1ccc2c(c1)-n1nnc(COc3cccc(Br)c3)c1Cc1c(C#N)ncn1-2 [Compound 225]	> 7.00	–
N#Cc1ncn2c1Cc1c(COc3ccccc3)nnn1-c1cc(Cl)ccc1-2 [Compound 226]	> 7.00	–
N#Cc1ncn2c1Cc1c(COc3cccc(F)c3)nnn1-c1cc(Cl)ccc1-2 [Compound 227]	> 7.00	–
Fc1ccc2c(c1)-n1cnc(Br)c1Cc1c(Cc3ccccc3)nnn1-2 [Compound 229]	< 6.00	–
CC(C)c1nc(-c2ncn3c2Cc2c(C(=O)c4ccc(F)cc4)nnn2-c2ccc(F)cc2-3)no1 [Compound 230]	> 7.00	–
CC(C)c1nc(-c2ncn3c2Cc2c(Cc4ccc(F)cc4)nnn2-c2ccc(F)cc2-3)no1 [Compound 231]	< 6.00	–
COc1ccc2c(c1)-c1nnc(COc3ccccc3)n1Cc1c(Br)ncn1-2 [Compound 232]	> 7.00	–
COCc1nnc2n1Cc1c(-c3cc(C)no3)ncn1-c1ccc(Cl)cc1-2 [Compound 233]	> 7.00	–
COc1ccc2c(c1)-c1nnc(COc3cccnc3)n1Cc1c(Br)ncn1-2 [Compound 235]	> 7.00	–
C#Cc1ncn2c1Cn1c(COc3ccccc3)nnc1-c1cc(OC)ccc1-2 [Compound 236]	> 7.00	–
COCc1nnc2n1Cc1c(C3=NCCCO3)ncn1-c1ccc(Cl)cc1-2 [Compound 237]	6.00 to 7.00	–
COCc1nnc2n1Cc1c(C3=NCCO3)ncn1-c1ccc(Cl)cc1-2 [Compound 238]	> 7.00	–
COCc1nnc2n1Cc1c(C3=NCC(C)(C)CO3)ncn1-c1ccc(Cl)cc1-2 [Compound 239]	–	< 6.00
COCc1nnc2n1Cc1c(C3=N[C@@H](C(C)C)CO3)ncn1-c1ccc(Cl)cc1-2 [Compound 240]	6.00 to 7.00	–
C#Cc1ncn2c1Cn1c(COc3cccnc3)nnc1-c1cc(OC)ccc1-2 [Compound 241]	> 7.00	–
COCc1nnc2n1Cc1c(C3=NC(c4ccccc4)CO3)ncn1-c1ccc(Cl)cc1-2 (stereo not drawn) [Compound 242]	> 7.00	–
COCc1nnc2n1Cc1c(-c3nc(C)co3)ncn1-c1ccc(Cl)cc1-2 [Compound 244]	> 7.00	–
COCc1nnc2n1Cc1c(-c3nc(-c4ccccc4)co3)ncn1-c1ccc(Cl)cc1-2 [Compound 245]	> 7.00	–
COCc1nnc2n1Cc1c(-c3nc(C(C)C)co3)ncn1-c1ccc(Cl)cc1-2 [Compound 246]	6.00 to 7.00	–

SMILES	pKi [1]	pKi
CNC(=O)c1nnn2c1Cc1c(Br)ncn1-c1ccc(OC)cc1-2 [Compound 247]	6.00 to 7.00	–
COc1ccc2c(c1)-n1nnc(C(=O)N3CCCC3)c1Cc1c(Br)ncn1-2 [Compound 248]	6.00 to 7.00	–
COCc1nnc2n1Cc1c(-c3ncco3)ncn1-c1ccc(Cl)cc1-2 [Compound 249]	> 7.00	–
COc1ccc2c(c1)-n1nnc(CN3CCCC3)c1Cc1c(C#N)ncn1-2 [Compound 250]	< 6.00	–
COc1ccc2c(c1)-n1nnc(CN3CCCCC3)c1Cc1c(C#N)ncn1-2 [Compound 251]	< 6.00	–
CCN(CC)Cc1nnn2c1Cc1c(C#N)ncn1-c1ccc(OC)cc1-2 [Compound 252]	< 6.00	–
COc1ccc2c(c1)-n1nnc(CN3CCC(c4ccccc4)CC3)c1Cc1c(C#N)ncn1-2 [Compound 253]	< 6.00	–
CCOCc1nnc2n1Cc1c(-c3nc(C(C)C)no3)ncn1-c1ccc(Cl)cc1-2 [Compound 254]	> 7.00	–
CCOCc1nnc2n1Cc1c(-c3nc(C)no3)ncn1-c1ccc(Cl)cc1-2 [Compound 255]	> 7.00	–
C#Cc1ncn2c1Cn1c(COC)nnc1-c1cc(Cl)ccc1-2 [Compound 256]	> 7.00	–
COc1ccc2c(c1)-n1nncc1Cc1c(-c3nc(C(C)C)no3)ncn1-2 [Compound 257]	> 7.00	–
COc1ccc2c(c1)-n1nncc1Cc1c(-c3nc(C)no3)ncn1-2 [Compound 258]	> 7.00	–
CCOCc1nnc2n1Cc1c(C3=NC(C)CO3)ncn1-c1ccc(Cl)cc1-2 (stereo not drawn) [Compound 259]	> 7.00	–
CCOCc1nnc2n1Cc1c(C3=NC(c4ccccc4)CO3)ncn1-c1ccc(Cl)cc1-2 (stereo not drawn) [Compound 260]	> 7.00	–
C#Cc1ncn2c1Cn1c(COCC)nnc1-c1cc(Cl)ccc1-2 [Compound 261]	> 7.00	–
COc1ccc2c(c1)-n1nnc(/C=C/c3ccccc3)c1Cc1c(C#N)ncn1-2 [Compound 262]	< 6.00	–
COCc1nnc2n1Cc1c(C3=N[C@H](c4ccccc4)CO3)ncn1-c1ccc(Cl)cc1-2 [Compound 263]	> 7.00	–
COCc1nnc2n1Cc1c(C3=N[C@@H](c4ccccc4)CO3)ncn1-c1ccc(Cl)cc1-2 [Compound 264]	> 7.00	–
COCc1nnc2n1Cc1c(C3=N[C@@H](Cc4ccccc4)CO3)ncn1-c1ccc(Cl)cc1-2 [Compound 265]	6.00 to 7.00	–
COCc1nnc2n1Cc1c(C3=N[C@@H](CC4CCCCC4)CO3)ncn1-c1ccc(Cl)cc1-2 [Compound 266]	6.00 to 7.00	–

SMILES	pKi [1]	pKi
COCc1nnc2n1Cc1c(C3=N[C@H](CC(C)C)CO3)ncn1-c1ccc(Cl)cc1-2 [Compound 267]	6.00 to 7.00	–
CC(C)OCc1nnc2n1Cc1c(C3=N[C@H](c4ccccc4)CO3)ncn1-c1ccc(Cl)cc1-2 [Compound 268]	> 7.00	–
CC(C)OCc1nnc2n1Cc1c(C3=N[C@@H](c4ccccc4)CO3)ncn1-c1ccc(Cl)cc1-2 [Compound 270]	> 7.00	–
CCOCc1nnc2n1Cc1c(C3=N[C@H](c4ccccc4)CO3)ncn1-c1ccc(Cl)cc1-2 [Compound 271]	> 7.00	–
COc1ccc2c(c1)-n1nnc(-c3ccccc3)c1Cc1c(-c3nc(C(C)C)no3)ncn1-2 [Compound 272]	< 6.00	–
COc1ccc2c(c1)-n1nnc(-c3ccccc3)c1Cc1c(-c3nc(C)no3)ncn1-2 [Compound 273]	6.00 to 7.00	–
COCc1nnc2n1Cc1c(COc3ccccn3)ncn1-c1ccc(Cl)cc1-2 [Compound 274]	6.00 to 7.00	–
CCOCc1nnc2n1Cc1c(C3=N[C@@H](c4ccccc4)CO3)ncn1-c1ccc(Cl)cc1-2 [Compound 275]	> 7.00	–
COc1ccc2c(c1)-n1nnc(C)c1Cc1c(-c3nc(C(C)C)no3)ncn1-2 [Compound 277]	> 7.00	–
CCOCc1nnc2n1Cc1c(-c3cc(C)no3)ncn1-c1ccc(Cl)cc1-2 [Compound 278]	> 7.00	–
CCOC(=O)c1ncn2c1Cc1c(-c3ccccc3Cl)nnn1-c1cc(OC)ccc1-2 [Compound 279]	< 6.00	–
Cc1cc(-c2ncn3c2Cn2c(COC(C)C)nnc2-c2cc(Cl)ccc2-3)on1 [Compound 281]	6.00 to 7.00	–
COCc1nnc2n1Cc1c(C3=N[C@H](C)CO3)ncn1-c1ccc(Cl)cc1-2 [Compound 282]	> 7.00	–
COCc1nnc2n1Cc1c(C3=N[C@@H](C)CO3)ncn1-c1ccc(Cl)cc1-2 [Compound 283]	6.00 to 7.00	–
C#Cc1ccc2c(c1)-c1nnc(COC)n1Cc1c(C3=N[C@H](C(C)C)CO3)ncn1-2 [Compound 284]	6.00 to 7.00	–
COCc1nnc2n1Cc1c(C#Cc3ccccc3)ncn1-c1ccc(Cl)cc1-2 [Compound 285]	> 7.00	–
CC(C)OCc1nnc2n1Cc1c(C3=N[C@H](C)CO3)ncn1-c1ccc(Cl)cc1-2 [Compound 286]	6.00 to 7.00	–
CC(C)OCc1nnc2n1Cc1c(C3=N[C@@H](C)CO3)ncn1-c1ccc(Cl)cc1-2 [Compound 287]	6.00 to 7.00	–
C#Cc1ncn2c1Cn1c(COC(C)C)nnc1-c1cc(Cl)ccc1-2 [Compound 288]	> 7.00	–
COc1ccc2c(c1)-n1nncc1Cc1c(C3=N[C@@H](c4ccccc4)CO3)ncn1-2 [Compound 289]	> 7.00	–
